Patent US10597388B2, “Pyridazinone herbicides” (FMC CORPORATION, priority 2014, dated 2020)

Experiments:
Assay type in all cases: in vivo
[1] = system: galium (catchweed bedstraw, Galium aparine); experiment: Test A greenhouse herbicide test, postemergence; details: for Galium plant response rating: 0 to 100 scale, 0 is no effect, 100 is complete control
Description: (§1) At the same time, plants selected from these crop and weed species and also blackgrass (Alopecurus myosuroides), and galium (catchweed bedstraw, Galium aparine) were planted in pots containing the same blend of loam soil and sand and treated with postemergence applications of test chemicals formulated in the same manner. Plants ranged in height from 2 to 10 cm and were in the one- to two-leaf stage for the postemergence treatment. Treated plants and untreated controls were maintained in a greenhouse for approximately 10 d, after which time all treated plants were compared to untreated controls and visually evaluated for injury. Plant response ratings, summarized in Table A, are based on a 0 to 100 scale where 0 is no effect and 100 is complete control. A dash (-) response means no test result.

[2] = system: blackgrass (Alopecurus myosuroides); experiment: Test A greenhouse herbicide test, postemergence; details: for Blackgrass plant response rating: 0 to 100 scale, 0 is no effect, 100 is complete control
Description: as §1

[3] = system: barnyardgrass (Echinochloa crus-galli); experiment: Test A greenhouse herbicide test, pre- and postemergence
Description: (§2) Seeds of plant species selected from barnyardgrass (Echinochloa crus-galli), kochia (Kochia scoparia), ragweed (common ragweed, Ambrosia elatior), ryegrass, Italian (Italian ryegrass, Lolium multiflorum), crabgrass, large (large crabgrass, Digitaria sanguinalis), foxtail, giant (giant foxtail, Setaria faberii), momingglory (Ipomoea spp.), pigweed (Amaranthus retroflexus), velvetleaf (Abutilon theophrasti), wheat (Triticum aestivum), and corn (Zea mays) were planted into a blend of loam soil and sand and treated preemergence with a directed soil spray using test chemicals formulated in a non-phytotoxic solvent mixture which included a surfactant.
as §1

kochia (Kochia scoparia) = experiment: as above
Description: as §2, §1

[4] = system: wheat (Triticum aestivum); experiment: as above; details: Postemergence; for Wheat plant response rating: 0 to 100 scale, 0 is no effect, 100 is complete control
Description: as §2, §1

[5] = system: ragweed (common ragweed, Ambrosia elatior); experiment: as above
Description: as §2, §1

corn (Zea mays) = experiment: as above; details: Postemergence; for Corn plant response rating: 0 to 100 scale, 0 is no effect, 100 is complete control
Description: as §2, §1

[6] = system: foxtail, giant (giant foxtail, Setaria faberii); experiment: as above
Description: as §2, §1

[7] = system: pigweed (Amaranthus retroflexus); experiment: as above
Description: as §2, §1

[8] = system: ryegrass, Italian (Italian ryegrass, Lolium multiflorum); experiment: as above
Description: as §2, §1

[9] = 125 g ai/ha, 0 to 100 scale where 0 is no effect and 100 is complete control
[10] = Postemergence, 125 g ai/ha, 0 to 100 scale where 0 is no effect and 100 is complete control
[11] = Postemergence, 500 g ai/ha, 0 to 100 scale, 0 is no effect, 100 is complete control
[12] = Preemergence, 125 g ai/ha, 0 to 100 scale where 0 is no effect and 100 is complete control
[13] = Preemergence, 500 g ai/ha, 0 to 100 scale where 0 is no effect and 100 is complete control
[14] = 500 g ai/ha, visual rating after approx. 10 d, 0 to 100 scale (0 no effect, 100 complete control)
[15] = Postemergence, 500 g ai/ha, visual rating after approx. 10 d, 0 to 100 scale (0 no effect, 100 complete control)

SMILES | Plant response rating, Galium [1, 9] | Galium plant response rating ([1]; 500 g ai/ha) | Plant response rating, Blackgrass [2, 9] | Plant response rating, Barnyardgrass [3, 10] | Barnyardgrass plant response rating [3, 12] | Plant response rating, Kochia (kochia (Kochia scoparia); [10]) | Kochia plant response rating (kochia (Kochia scoparia); [12]) | Plant response rating, Kochia (kochia (Kochia scoparia); [13]) | Plant response rating, Wheat [4, 9] | Plant response rating, Ragweed [5, 10] | Plant response rating, Ragweed [5, 13] | Plant response rating, Corn (corn (Zea mays); [9]) | Plant response rating, Foxtail, Giant [6, 10] | Foxtail, Giant plant response rating [6, 12] | Plant response rating, Foxtail, Giant [6, 13] | Plant response rating, Pigweed [7, 10] | Pigweed plant response rating [7, 12] | Plant response rating, Pigweed [7, 13] | Plant response rating, Ryegrass, Italian [8, 10] | Plant response rating, Ryegrass, Italian [8, 13] | further results
CCc1nn(C)c(=O)c(-c2c(C)oc3ccc(Cl)cc23)c1O [Compound 77] | 20 | 60 | 0 | 0 | 0 | 0 | 0 | 0 | 0 | 0 | 0 | 0 | 0 | 0 | 10 | 0 | 0 | 0 | 20 | 40 | Blackgrass plant response rating ([2]; 500 g ai/ha): 0; Barnyardgrass plant response rating [3, 11]: 0; Plant response rating, Barnyardgrass ([3]; Preemergence, 500 g ai/ha, 0 to 100 scale, 0 no effect, 100 complete control): 10; Kochia plant response rating (kochia (Kochia scoparia); [11]): 10; Wheat plant response rating ([4]; 500 g ai/ha): 0; Ragweed plant response rating [5, 11]: 0; Ragweed plant response rating [5, 12]: 0; Corn plant response rating (corn (Zea mays); 500 g ai/ha): 0; Foxtail, Giant plant response rating [6, 11]: 0; Pigweed plant response rating [7, 11]: 0; Ryegrass, Italian plant response rating [8, 11]: 60; Ryegrass, Italian plant response rating [8, 12]: 10
Cc1ccc2ccccc2c1-c1c(OS(C)(=O)=O)cnn(C)c1=O [Compound 142] | 70 | – | 10 | 10 | 10 | 0 | 0 | 0 | 0 | 0 | 40 | 0 | 10 | 10 | 60 | 20 | 60 | 50 | 80 | 80 | Plant response rating, Galium [1, 14]: 80; Plant response rating, Blackgrass [2, 14]: 20; Plant response rating, Barnyardgrass [3, 15]: 20; Plant response rating, Barnyardgrass [3, 13]: 70; Plant response rating, Kochia (kochia (Kochia scoparia); [15]): 20; Plant response rating, Wheat [4, 14]: 0; Plant response rating, Ragweed [5, 15]: 20; Plant response rating, Corn (corn (Zea mays); [14]): 0; Plant response rating, Foxtail, Giant [6, 15]: 20; Plant response rating, Pigweed [7, 15]: 50; Plant response rating, Ryegrass, Italian [8, 15]: 90
Cc1nn(C)c(=O)c(-c2c(Cl)n(C)c3ccccc23)c1O [Compound 95] | 20 | 60 | 0 | 0 | 0 | 0 | 0 | 10 | 0 | 0 | 20 | 0 | 0 | 0 | 0 | 0 | 0 | 20 | 10 | 60 | Blackgrass plant response rating ([2]; 500 g ai/ha): 10; Barnyardgrass plant response rating [3, 11]: 10; Plant response rating, Barnyardgrass [3, 13]: 0; Kochia plant response rating (kochia (Kochia scoparia); [11]): 10; Wheat plant response rating ([4]; 500 g ai/ha): 0; Ragweed plant response rating [5, 11]: 10; Ragweed plant response rating [5, 12]: 0; Corn plant response rating (corn (Zea mays); 500 g ai/ha): 0; Foxtail, Giant plant response rating [6, 11]: 0; Pigweed plant response rating [7, 11]: 0; Ryegrass, Italian plant response rating [8, 11]: 50; Ryegrass, Italian plant response rating [8, 12]: 10
